Measured values from patent publication US9056835B2, “LPA2 receptor-specific benzoic acid derivatives” (University of Tennessee Research Foundation, priority 2012, dated 2015).
pEC50: −log10 of the molar value. Read-outs that look alike come from different tables or passages of the source.

Experiments:
[1] = target: LPA2 (Homo sapiens, UniProt Q9HBW0); assay: LPA receptor-mediated Ca2+ mobilization assay, LPA2 (RH7777 cells stably expressing LPA2); format: cell-based; parameters: expressed in transfected cells; settings: for pEC50: agonist, Ca2+ mobilization, read-out: LPA2 EC50; for receptor specificity of activation among established and putative LPA GPCRs: up to 10 μM
Chain of LPA2 (Q9HBW0 whole entry): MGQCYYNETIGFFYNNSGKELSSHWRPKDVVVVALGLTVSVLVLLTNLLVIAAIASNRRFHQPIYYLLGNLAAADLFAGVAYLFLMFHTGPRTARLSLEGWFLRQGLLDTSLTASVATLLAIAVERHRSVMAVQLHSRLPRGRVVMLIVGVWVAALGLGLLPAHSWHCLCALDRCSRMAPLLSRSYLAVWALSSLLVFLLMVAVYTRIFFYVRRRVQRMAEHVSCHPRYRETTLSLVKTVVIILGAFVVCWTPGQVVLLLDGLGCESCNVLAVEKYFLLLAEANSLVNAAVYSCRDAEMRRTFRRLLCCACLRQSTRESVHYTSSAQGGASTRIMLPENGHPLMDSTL
Protocol: Similarity searches were performed separately using each fingerprint to quantitate similarity. Hits meeting the 80% similarity threshold from each search were ranked based on the Tanimoto coefficient measure of similarity to a target molecule NSC12404, and the top 75 unique hits from each fingerprint search were selected for further analysis. […] This selected a diverse subset of 27 compounds for biological evaluation by choosing the middle compounds in each cluster. These 27 compounds were tested in Ca^2+ mobilization assays at a concentration of 10 μM using stable cell lines individually expressing LPA2 and also in vector-transfected control cells. Hits activating LPA2 were further tested using cells expressing the other established and putative LPA GPCRs. […] They arbitrarily selected GRI977143 for further characterization in cell-based assays.
The newly-synthesized compounds were tested for their ability to induce Ca^2+ transients in RH7777 cells stably expressing the LPA2 receptor.
The cells were loaded with Fura-2-acetoxymethyl esther (Fura-2/AM) in Krebs buffer containing 0.01% pluronic acid for 30 min and rinsed with Krebs buffer before measuring Ca^2+ mobilization. The ratio of peak emissions at 510 nm after 2 min of ligand addition was determined for excitation wavelengths of 340 nm/380 nm. All samples were run in quadruplicate. […] The half maximally effective concentration (EC50), and inhibitory constant (Ki) values were calculated by fitting a sigmoid function to dose-response data points using KaleidaGraph software (version 4.1, Synergy Software; […]).
Mouse embryonic fibroblast (MEF) cells were isolated from E13.5 LPA1&2 double knockout (DKO) embryos. MEFs were transduced with empty vector or LPA2-containing lentiviruses and selected with 1.5 μg/ml puromycin. Cells were maintained in Dulbecco's modified Eagle medium (DMEM) supplemented with 10% (V/V) fetal bovine serum (FBS), 2 mM L-glutamine, 100 U/mL penicillin, and 100 μg/mL streptomycin. Serum-free medium contained 0.1% (W/V) BSA in DMEM. The rat intestinal epithelial cell line 6 (IEC-6) was obtained from the American Type Culture Collection (Rockville, Md.) at passage 13; passages 16-21 were used in all experiments. IEC-6 cells were maintained in a humidified 37° C. incubator in an atmosphere of 90% air and 10% CO2. Growth medium consisted of DMEM supplemented with 5% heat inactivated FBS, 10 μg/mL insulin, and 50 μg/mL gentamycin. The composition of the serum-starvation medium was the same as that of the full growth medium except that it contained no FBS. The McArdle rat hepatoma cell line (RH7777) stably expressing LPA2 receptors was a gift from Dr. Fumikazu Okajima (Gunma University, Maebashi, Japan). RH7777 cells stably expressing LPA1 or LPA3 receptors were generated in-house and had been characterized earlier. Wild type and LPA receptor (LPAR) stably transfected RH7777 cells were grown in DMEM supplemented with 10% FBS and 2 mM L-glutamine in the presence of 250 μg/ml G418. Chinese hamster ovary (CHO) cells stably expressing either vector or LPA4 receptor were a kind gift from Dr. Takao Shimizu (Tokyo University; Tokyo, Japan). Cells were cultured in Ham's F12 medium containing 10% FBS, 2 mM L-glutamine, and 350 μg/ml G418. Rat neuroblastoma cells (B103) were transduced with the lentivirus harboring wild type of FLAG-LPA5 and selected with puromycin to establish the stable cell lines. The stable cells were maintained in DMEM supplemented with 10% FBS and 0.4 μg/ml puromycin. GPR87- and P2Y10-expressing CHO cells and vector-transfected control cells were a gift from Dr. Norihisha Fujita (Ritsumeikan University; Shiga, Japan). The highly invasive MM1 rat hepatoma cells (gift from Dr. Michiko Mukai, Osaka University, Japan) were grown in suspension in DMEM supplemented with 10% (V/V) FBS, 2 mM L-glutamine, 100 U/mL penicillin, and 100 μg/mL streptomycin.

[2] = system: vector- and LPA2-transduced MEF cells; assay: Serum withdrawal-induced apoptosis (caspase activity, DNA fragmentation); format: cell-based, mouse; settings: for reduction of apoptotic indicators: vector-transduced MEF
Protocol: Experiments were performed on vector- and LPA2-transduced MEF cells. To measure caspase 3, 7, 8, or 9 activity and DNA fragmentation, cells were plated in 48-well plates (2×10^4 cells/well). To detect PARP-1 cleavage and Bax translocation, 1.5×10^6 cells were plated in 10-cm dishes and cultured overnight in full growth medium. The next morning, the growth medium was replaced by serum-starvation medium and cells were pretreated for 1 h with LPA (1-10 μM), OTP (1-10 μM), GRI977143 (1-10 μM), or vehicle. Caspase activity, DNA fragmentation, PARP-1 cleavage, and Bax translocation were measured 5 h after incubation with 1.7 μM Adriamycin or 24 h after serum withdrawal.
Caspase-Glow® 3/7, Caspase-Glow® 8 and Caspase-Glow® 9 reagents were purchased from Promega (Madison, Wis.) and used according to the manufacturer's instructions. Briefly, cells were lysed by adding 50 μl of lysis reagent per well, followed by shaking for 30 min at room temperature. […] lysate were transferred to a 96-well white-wall plate, and luminescence was measured using a BioTek® (Winooski, Vt.) plate reader.
Apoptotically-challenged cells were washed twice with PBS, and a quantitative DNA fragmentation assay was carried out using a Cell Death Detection ELISA PLUS kit (Roche Diagnostics, Penzberg, Germany) and normalized to protein concentration using the BCA Protein Assay Kit (Thermo Fisher Scientific, Inc.; Rockford, Ill.) as described previously (Valentine et al., 2010). Aliquots of nuclei-free cell lysate were placed in streptavidin-coated wells and incubated with anti-histone-biotin antibody and anti-DNA peroxidase-conjugated antibody for 2 h at room temperature. After the incubation, the sample was removed, and the wells were washed and incubated with 100 μl 2,2′-azino-di[3-ethylbenzthiazolin-sulfonate substrate at room temperature before the absorbance was read at 405 nm. Results were expressed as absorbance at 405 nm/min/mg protein as detailed in our previous report (Ray et al., Mdm2 inhibition induces apoptosis in p53 deficient human colon cancer cells by activating p73- and E2F1-mediated expression of PUMA and Siva-1. Apoptosis (2011) 16(1): 35-44).

Molecule | pEC50 [1] | receptor specificity of activation among established and putative LPA GPCRs [1] | DNA fragmentation ([2]; LPA2-transduced MEF, 10 μM) | reduction of caspase 3, 7, 8, and 9 activation ([2]; LPA2-transduced MEF, 10 μM) | reduction of apoptotic indicators [2] | Emax ([1]; Ca2+ transients, RH7777 cells stably expressing LPA2) | EC50 ([1]; Ca2+ transients, RH7777 cells stably expressing LPA2, read-out: EC50 (μM) (RH7777))
O=C(O)c1cc(Cl)c(Cl)cc1C(=O)Nc1ccc2c(c1)C(=O)c1ccccc1-2 [Compound H2L5547924] | 5.55 | activated only LPA2 | – | – | – | – | –
O=C(O)c1ccccc1C(=O)Nc1ccc2c(c1)C(=O)c1ccccc1C2=O [Compound H2L5828102] | 5.48 | activated only LPA2 | – | – | – | – | –
O=C(O)c1ccccc1SCCCN1C(=O)c2cccc3cccc(c23)C1=O [GRI977143] | 5.48 | activated only LPA2 | attenuated DNA fragmentation | highly effective | failed to cause any reduction | 64% | 3.3 µM
CCCCCCCC/C=C\CCCCCCCC(=O)OC[C@@H](O)COP(=O)(O)O [LPA 18:1, Lysophosphatidic acid (18:1)] | – | – | – | – | protected the vector-transduced MEF cells too | – | –
O=C(O)c1ccccc1C(=O)Nc1ccc2c(c1)C(=O)c1ccccc1-2 [NSC12404] | 5.02 | – | – | – | – | – | –
octadecenyl thiophosphate [OTP] | 6.47 | – | – | – | protected the vector-transduced MEF cells too | – | –
